# Data as given in US20060009493A1, “Indolinone hydrazides as c-Met inhibitors” (Sugen, Inc., priority 2003, published 2006).
# Biological target: T1, GST fusion protein containing the Met kinase domain (Homo sapiens, UniProt P08581)
# T1 construct: Purified GST fusion protein containing the Met kinase domain, Sugen, Inc
# Assay: MET Transphosphorylation Assay (ELISA, poly(Glu,Tyr) 4:1 substrate)
# Assay type: biochemical
# Details: met transphosphorylation of poly(glutamic acid:tyrosine 4:1) substrate; two values in a cell separated by '/'
# Method: MET Transphosphorylation Assay
# This assay is used to measure phosphotyrosine levels on a poly(glutamic acid:tyrosine (4:1)) substrate as a means for identifying agonists/antagonists of met transphosphorylation of the substrate.
# • 1. […] PBS, Gibco Catalog # 450-1300EB • 4. 50 mM HEPES • 5. […] Purified GST fusion protein containing the Met kinase domain, Sugen, Inc. • 7. TBST Buffer. • 8. 10% aqueous (MilliQue H2O) DMSO. • 9. […] 2× Kinase Dilution Buffer: for 100 ml, mix 10 mL 1M HEPES at pH 7.5 with 0.4 mL 5% BSA/PBS, 0.2 mL 0.1 M sodium orthovanadate and 1 mL 5M sodium chloride in 88.4 mL dH2O. • 11. 4×ATP Reaction Mixture: for 10 mL, mix 0.4 mL 1 M manganese chloride and 0.02 mL 0.1 M ATP in […] dH2O. • 12. 4× Negative Controls Mixture: for 10 mL, mix 0.4 mL 1 M manganese chloride in 9.6 mL dH2O.
# 13. […] 500 mM EDTA. • 15. Antibody Dilution Buffer: for 100 mL, mix 10 mL 5% BSA/PBS, 0.5 mL 5% Carnation Instant Milk® in PBS and 0.1 mL 0.1 M sodium orthovanadate in 88.4 mL TBST. • 16. Rabbit polyclonal antophosphotyrosine antibody, Sugen, Inc. • 17. Goat anti-rabbit horseradish peroxidase conjugated antibody, Biosource, Inc. • 18. ABTS Solution: for 1 L, mix 19.21 g citric acid, 35.49 g Na2HPO4 and 500 mg ABTS with sufficient dH2O to make 1 L. • 19. ABTS/H2O2: mix 15 mL ABST solution with 2 μL H2O2 five minutes before use. • 20. 0.2 M HCl Procedure: • 1. Coat ELISA plates with 2 μg Poly(Glu-Tyr) in 100 μL PBS, store overnight at 4° C. • 2. Block plate with 150 μL of 5% BSA/PBS for 60 min. • 3. Wash plate twice with PBS, once with 50 mM Hepes buffer pH 7.4. • 4. Add 50 μl of the diluted kinase to all wells. (Purified kinase is diluted with Kinase Dilution Buffer. Final concentration should be 10 ng/well.) • 5. Add 25 μL of the test compound (in 4% DMSO) or DMSO alone (4% in dH2O) for controls to plate. • 6. Incubate the kinase/compound mixture for 15 minutes. • 7. Add 25 μL of 40 mM MnCl2 to the negative control wells. • 8. Add 25 μL ATP/MnCl2 mixture to the all other wells (except the negative controls). Incubate for 5 min. • 9. Add 25 μL 500 mM EDTA to stop reaction. • 10. Wash plate 3× with TBST. • 11. Add 100 μL rabbit polyclonal anti-Ptyr diluted 1:10,000 in Antibody Dilution Buffer to each well. Incubate, with shaking, at room temperature for one hour. • 12. Wash plate 3× with TBST. • 13. […] Add 100 μL per well and incubate at room temperature, with shaking, for one hour. • 14. Wash plate 1× with PBS. • 15. Add 100 μl of ABTS/H2O2 solution to each well. • 16. If necessary, stop the development reaction with the addition of […] of 0.2M HCl per well. • 17.
# T1 sequence (P08581 1078-1345 limits assumed): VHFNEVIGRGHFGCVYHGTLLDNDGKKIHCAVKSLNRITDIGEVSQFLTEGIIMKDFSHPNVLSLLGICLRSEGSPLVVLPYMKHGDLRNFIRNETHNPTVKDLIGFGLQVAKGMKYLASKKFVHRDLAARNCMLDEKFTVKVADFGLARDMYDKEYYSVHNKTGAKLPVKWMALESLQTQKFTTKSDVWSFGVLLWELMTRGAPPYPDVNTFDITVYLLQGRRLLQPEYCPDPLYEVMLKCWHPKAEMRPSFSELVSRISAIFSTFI
row,Compound,IC50
1,"Cc1ccc(C)c2c1NC(=O)/C2=N\NC(=O)Cc1ccccc1 [II-85, Phenyl-acetic acid [(3Z)-4,7-dimethyl-2-oxo-1,2-dihydro-indol-3-ylidene]-hydrazide]",91 nM
2,"O=C(Cc1ccncc1)N/N=C1\C(=O)Nc2c(Cl)ccc(Cl)c21 [II-66, Pyridin-4-yl-acetic acid [(3Z)-4,7-dichloro-2-oxo-1,2-dihydro-indol-3-ylidene]-hydrazide]",13 nM
3,"CC(C(=O)N/N=C1\C(=O)Nc2ccc(O)c(Cl)c21)c1ccc(F)cc1 (centres unmarked) [II-105, 2-(4-Fluoro-phenyl)-propionic acid [(3Z)-4-chloro-5-hydroxy-2-oxo-1,2-dihydro-indol-3-ylidene)-hydrazide]",420 nM
4,"CCN(CC)CCc1cc(C)c2c(c1C)/C(=N/NC(=O)C(C)c1ccc(F)cc1)C(=O)N2 (centres unmarked) [Example I-63, 2-(4-Fluoro-phenyl)-propionic acid [(3Z)-5-(2-diethylamino-ethyl)-4,7-dimethyl-2-oxo-1,2-dihydro-indol-3-ylidene]-hydrazide]",1050 nM
5,"Cn1cc(CC(=O)N/N=C2\C(=O)Nc3ccc(C(=O)N4CCC(NC5CC5)CC4)c(Cl)c32)ccc1=O [Example I-35, (1-Methyl-6-oxo-1,6-dihydro-pyridin-3-yl)-acetic acid [(3Z)-4-chloro-5-(4-cyclopropylamino-piperidine-1-carbonyl)-2-oxo-1,2-dihydro-indol-3-ylidene]-hydrazide]",1230 nM
6,"O=C(Cc1ccc(F)cc1)N/N=C1\C(=O)Nc2c(Cl)ccc(Cl)c21 [II-67, (4-Fluoro-phenyl)-acetic acid [(3Z)-4,7-dichloro-2-oxo-1,2-dihydro-indol-3-ylidene)-hydrazide]",20 nM
7,"CC(C(=O)N/N=C1\C(=O)Nc2c(Cl)ccc(Cl)c21)c1ccc(O)c(Br)c1 (centres unmarked) [II-104, 2-(3-Bromo-4-hydroxy-phenyl)-propionic acid [(3Z)-4,7-dichloro-2-oxo-1,2-dihydro-indol-3-ylidene]-hydrazide]",790 nM
8,"O=C(CCc1ccc(O)cc1)N/N=C1\C(=O)Nc2ccccc21 [II-24, 3-(4-Hydroxy-phenyl)-propionic acid [(3E)-2-oxo-1,2-dihydro-indol-3-ylidene]-hydrazide]",> 20000 nM
9,"O=C(Cc1ccc(O)cc1)N/N=C1\C(=O)Nc2cccc(-c3cccc(F)c3)c21 [Example I-14, (4-Hydroxy-phenyl)-acetic acid [(3Z)-4-(3-fluoro-phenyl)-2-oxo-1,2-dihydro-indol-3-ylidene]-hydrazide]",500 nM
10,"CC(C(=O)N/N=C1\C(=O)Nc2ccc(Br)cc21)c1ccc2c(c1)OCO2 (centres unmarked) [Example I-53, 2-Benzo[1,3]dioxol-5-yl-propionic acid [(3Z)-5-bromo-2-oxo-1,2-dihydro-indol-3-ylidene]-hydrazide]",740 nM
11,"CC(C(=O)N/N=C1\C(=O)Nc2c(Cl)ccc(Cl)c21)c1ccc2c(c1)OCO2 (centres unmarked) [Example I-52, 2-Benzo[1,3]dioxol-5-yl-propionic acid [(3Z)-4,7-dichloro-2-oxo-1,2-dihydro-indol-3-ylidene]-hydrazide]",260 nM
12,"CC(C)C(C(=O)N/N=C1\C(=O)Nc2c(Cl)ccc(Cl)c21)c1ccc(O)cc1 (centres unmarked) [II-69, 2-(4-Hydroxy-phenyl)-3-methyl-butyric acid [(3Z)-4,7-dichloro-2-oxo-1,2-dihydro-indol-3-ylidene)-hydrazide]",170 nM
13,"N#Cc1cc(CC(=O)N/N=C2\C(=O)Nc3ccccc32)ccc1O [II-108, (3-Cyano-4-hydroxy-phenyl)-acetic acid [(3Z)-2-oxo-1,2-dihydro-indol-3-ylidene)-hydrazide]",11900 nM
14,"Cc1ccc(C)c2c1NC(=O)/C2=N\NC(=O)C1Cc2ccccc2C1 [Example I-58, Indan-2-carboxylic acid [(3Z)-4,7-dimethyl-2-oxo-1,2-dihydro-indol-3-ylidene]-hydrazide]",> 20000 nM
15,"CC(C(=O)N/N=C1\C(=O)Nc2ccc(C#CCN(C)C)cc21)c1ccc(F)cc1 (centres unmarked) [Example I-51, 2-(4-Fluoro-phenyl)-propionic acid [(3Z)-5-(3-dimethylamino-prop-1-ynyl)-2-oxo-1,2-dihydro-indol-3-ylidene]-hydrazide]",5100 nM
16,"COC(=O)c1cccc2c1/C(=N/NC(=O)Cc1ccc(O)cc1)C(=O)N2 [Example I-56, (3Z)-3-{[2-(4-Hydroxy-phenyl)-acetyl]-hydrazono}-2-oxo-2,3-dihydro-1H-indole-4-carboxylic acid methyl ester]",540 nM
17,"O=C(CCc1ccccc1)N/N=C1\C(=O)Nc2c(Cl)ccc(Cl)c21 [II-84, 3-Phenyl-propionic acid [(3Z)-4,7-dichloro-2-oxo-1,2-dihydro-indol-3-ylidene]-hydrazide]",> 20000 nM
18,"COc1cc(Cl)c2c(c1Cl)/C(=N/NC(=O)Cc1ccc(O)cc1)C(=O)N2 [II-95, (4-Hydroxy-phenyl)-acetic acid [(3Z)-4,7-dichloro-5-methoxy-2-oxo-1,2-dihydro-indol-3-ylidene]-hydrazide]",32 nM
19,"O=C(Cc1ccc(O)cc1)N/N=C1\C(=O)Nc2ncccc21 [Example I-49, (4-Hydroxy-phenyl)-acetic acid [(3Z)-2-oxo-1,2-dihydro-pyrrolo[2,3-b]pyridin-3-ylidene)-hydrazide]",230 nM
20,"COc1ccc(CC(=O)N/N=C2\C(=O)Nc3ccc(C(=O)O)c(Cl)c32)cc1C#N [II-110, (3Z)-4-Chloro-3-{[2-(3-cyano-4-methoxy-phenyl)-acetyl]-hydrazono}-2-oxo-2,3-dihydro-1H-indole-5-carboxylic acid]",> 20000 nM
21,"Cc1ccc(C)c2c1NC(=O)/C2=N\NC(=O)CCc1ccc(O)cc1 [II-81, 3-(4-Hydroxy-phenyl)-propionic acid [(3Z)-4,7-dimethyl-2-oxo-1,2-dihydro-indol-3-ylidene]-hydrazide]",59 nM
22,"Cn1cc(CC(=O)N/N=C2\C(=O)Nc3c(Cl)ccc(Cl)c32)ccc1=O [II-59, (1-Methyl-6-oxo-1,6-dihydro-pyridin-3-yl)-acetic acid [(3Z)-4,7-dichloro-2-oxo-1,2-dihydro-indol-3-ylidene]-hydrazide]",45 nM
23,"O=C1Nc2ccccc2/C1=N/NC(=O)C1Cc2ccccc2C1 [Example I-59, Indan-2-carboxylic acid [(3Z)-2-oxo-1,2-dihydro-indol-3-ylidene)-hydrazide]",> 20000 nM
24,"O=C(Cc1ccccc1Cl)N/N=C1\C(=O)Nc2ccccc21 [II-13, (2-Chloro-phenyl)-acetic acid [(3Z)-2-oxo-1,2-dihydro-indol-3-ylidene]-hydrazide]",> 20000 nM
25,"O=C(Cc1ccccc1)N/N=C1\C(=O)Nc2c(Cl)ccc(Cl)c21 [II-75, Phenyl-acetic acid [(3Z)-4,7-dichloro-2-oxo-1,2-dihydro-indol-3-ylidene]-hydrazide]",90 nM
26,"Cc1ccc2c(c1)/C(=N/NC(=O)Cc1ccc(O)cc1)C(=O)N2 [II-58, (4-Hydroxy-phenyl)-acetic acid [(3Z)-5-methyl-2-oxo-1,2-dihydro-indol-3-ylidene]-hydrazide]",67 nM
27,"CC(C(=O)N/N=C1\C(=O)Nc2ccc(NC(=O)CN3CCCC3)cc21)c1ccc(F)cc1 (centres unmarked) [Example I-55, N-((3Z)-3-{[2-(4-Fluoro-phenyl)-propionyl]-hydrazono}-2-oxo-2,3-dihydro-1H-indol-5-yl)-2-pyrrolidin-1-yl-acetamide]",6160 nM
28,"Cc1cc(Cl)cc2c1NC(=O)/C2=N\NC(=O)Cc1ccc(O)cc1 [II-63, (4-Hydroxy-phenyl)-acetic acid [(3Z)-5-chloro-7-methyl-2-oxo-1,2-dihydro-indol-3-ylidene]hydrazide]",< 9.1 nM
29,"O=C(Cc1ccc2c(c1)OCO2)N/N=C1\C(=O)Nc2c(Cl)ccc(Cl)c21 [Example I-24, Benzo[1,3]dioxol-5-yl-acetic acid [(3Z)-4,7-dichloro-2-oxo-1,2-dihydro-indol-3-ylidene]-hydrazide]",110 nM
